# Results from BigSolDB 2.1.
smiles,measurement,setting,value
O=C(Oc1ccccc1)c1ccccc1O,solubility (mole fraction),"in ethanol, 283.15 K",0.0226
same,solubility (mole fraction),"in ethanol, 288.15 K",0.0361
same,solubility (mole fraction),"in ethanol, 293.15 K",0.0647
same,solubility (mole fraction),"in ethanol, 298.15 K",0.127
same,solubility (mole fraction),"in ethanol, 303.15 K",0.289
same,solubility (mole fraction),"in ethanol, 308.15 K",0.715
same,solubility (mole fraction),"in isobutanol, 283.15 K",0.0185
same,solubility (mole fraction),"in isobutanol, 288.15 K",0.0288
same,solubility (mole fraction),"in isobutanol, 293.15 K",0.0517
same,solubility (mole fraction),"in isobutanol, 298.15 K",0.112
same,solubility (mole fraction),"in isobutanol, 303.15 K",0.279
same,solubility (mole fraction),"in isobutanol, 308.15 K",0.709
same,solubility (mole fraction),"in isopropanol, 283.15 K",0.0169
same,solubility (mole fraction),"in isopropanol, 288.15 K",0.0273
same,solubility (mole fraction),"in isopropanol, 293.15 K",0.0487
same,solubility (mole fraction),"in isopropanol, 298.15 K",0.101
same,solubility (mole fraction),"in isopropanol, 303.15 K",0.275
same,solubility (mole fraction),"in isopropanol, 308.15 K",0.702
same,solubility (mole fraction),"in methanol, 283.15 K",0.0162
same,solubility (mole fraction),"in methanol, 288.15 K",0.0251
same,solubility (mole fraction),"in methanol, 293.15 K",0.0459
same,solubility (mole fraction),"in methanol, 298.15 K",0.0946
same,solubility (mole fraction),"in methanol, 303.15 K",0.274
same,solubility (mole fraction),"in methanol, 308.15 K",0.694
same,solubility (mole fraction),"in n-butanol, 283.15 K",0.0337
same,solubility (mole fraction),"in n-butanol, 288.15 K",0.0511
same,solubility (mole fraction),"in n-butanol, 293.15 K",0.0908
same,solubility (mole fraction),"in n-butanol, 298.15 K",0.182
same,solubility (mole fraction),"in n-butanol, 303.15 K",0.34
same,solubility (mole fraction),"in n-butanol, 308.15 K",0.75
same,solubility (mole fraction),"in n-propanol, 283.15 K",0.0272
same,solubility (mole fraction),"in n-propanol, 288.15 K",0.043
same,solubility (mole fraction),"in n-propanol, 293.15 K",0.0756
same,solubility (mole fraction),"in n-propanol, 298.15 K",0.152
same,solubility (mole fraction),"in n-propanol, 303.15 K",0.33
same,solubility (mole fraction),"in n-propanol, 308.15 K",0.718
same,solubility (mole fraction),"in sec-butanol, 283.15 K",0.0381
same,solubility (mole fraction),"in sec-butanol, 288.15 K",0.0602
same,solubility (mole fraction),"in sec-butanol, 293.15 K",0.105
same,solubility (mole fraction),"in sec-butanol, 298.15 K",0.201
same,solubility (mole fraction),"in sec-butanol, 303.15 K",0.398
same,solubility (mole fraction),"in sec-butanol, 308.15 K",0.752
